These results are taken from patent US20240108011A1, “HERBICIDAL COMBINATIONS AND COMPOSITIONS AND METHODS FOR TREATING WEEDS USING THE SAME” (UPL Corporation Limited, priority 2021, published 2024).

What all share (type): in vivo
One experiment deals with Euphorbia heterophylla. The experiment can be described thus: Greenhouse trial, weed control efficacy on Euphorbia heterophylla. As to the method:
In this example, synergy of the combination of L-glufosinate ammonium (150 gai/ha) and 2,4-D choline (137 gai/ha) Euphorbia heterophylla was determined using the calculated percentage efficacy after 7, 14, 21 days of application (DAA). The results are recorded in the Table 4 below:
In this example, synergy of using the combination of L-glufosinate ammonium (150 gai/ha) and 2,4-D choline (228 gai/ha) on Euphorbia heterophylla was determined using the calculated percentage efficacy after 14, 21 days of application (DAA).

The test system of a further experiment is Eleusine indica. The experiment can be described thus: Greenhouse trial, weed control efficacy on Eleusine indica. The note with it: Table 3. On the procedure:
In this example, synergy of the combination of L-glufosinate ammonium (150 gai/ha) and 2,4-D choline (228 gai/ha) on Eleusine indica was determined using the calculated percentage efficacy after 7, 14, 21 and 28 days of application (DAA).

Another experiment has as its system Borreria verticilata. The experiment can be described thus: Greenhouse trial, weed control efficacy on Borreria verticilata. The note with it: 7 DAA. As to the method: In this example, synergy from the combination of L-glufosinate ammonium (150 gai/ha) and 2,4-D choline (137 gai/ha) on Borrelia verticilata was determined using the calculated percentage efficacy after 7 days of application (DAA). The results are recorded in Table 1 below:
In this example, synergy of the combination of L-glufosinate ammonium (150 gai/ha) and 2,4-D choline (228 gai/ha) on Borrelia verticilata was determined using the calculated percentage efficacy after 7 days of application (DAA).

In the case of `C[N+](C)(C)CCO.O=C([O-])COc1ccc(Cl)cc1Cl` [2,4-D choline], the “Observed efficacy (%) of 2,4-D choline (137 gai/ha)” value in the experiment on Euphorbia heterophylla (Table 4, 7 DAA) worked out at 35%; with Euphorbia heterophylla (Table 4, 14 DAA) it was 30%; in the experiment on Euphorbia heterophylla (Table 4, 21 DAA), 25%; in the experiment on Borreria verticilata (Table 1, 137 gai/ha), 30%. Also, the “Observed efficacy (%) of 2,4-D choline (228 gai/ha)” value in the experiment with Euphorbia heterophylla (Table 5, 14 DAA) stood at 30%; in the experiment with Euphorbia heterophylla (Table 5, 21 DAA), 30%; in the experiment on Eleusine indica (7 DAA) it was 10%; in the experiment on Eleusine indica (14 DAA), 10%; in the experiment on Eleusine indica (21 DAA), 10%; in the experiment with Eleusine indica (28 DAA) it was 5%. The “Observed efficacy (%) of 2,4-D choline (228 gai/ha)” value in the experiment on Borreria verticilata (Table 2, 228 gai/ha) was 30%.
Consider `CP(=O)(O)CC[C@H](N)C(=O)O.N` [L-glufosinate ammonium, ammonium (2S)-2-amino-4-(methylphosphinato)butyric acid], for which the “Observed efficacy (%) of L-glufosinate ammonium (150 gai/ha)” value worked out at 95% with Euphorbia heterophylla (Table 4, 7 DAA); 98% in the experiment with Euphorbia heterophylla (Table 4, 14 DAA); 98% in the experiment with Euphorbia heterophylla (Table 4, 21 DAA); 98% with Euphorbia heterophylla (Table 5, 14 DAA); 98% with Euphorbia heterophylla (Table 5, 21 DAA); 70% in the experiment with Eleusine indica (7 DAA). Moreover, the “Observed efficacy (%) of L-glufosinate ammonium (150 gai/ha)” value is 65% with Eleusine indica (14 DAA); 60% with Eleusine indica (21 DAA); 50% in the experiment with Eleusine indica (28 DAA); 65% in the experiment with Borreria verticilata (Table 1); 65% in the experiment with Borreria verticilata (Table 2).
